Laboratory results: US8192962B2, “Processes for detecting toxic substances” (Daikin Industries, Ltd., priority 2001, dated 2012)

Test system: Stress protein genes
Experiment: DNA chip mRNA expression in yeast, stress protein genes (Table 6)
Format: cell-based, Saccharomyces cerevisiae S288C
Procedure, shortened: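 Ratios compare mRNA levels in stressed and control S. cerevisiae. Each toxicant was applied for two hours to log-phase cultures at 25° C. at a sub-lethal, growth-inhibiting level; fluorescent cDNA (Cy3- or Cy5-dUTP) was hybridized to a genome-wide yeast chip for over 12 h at 65° C.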

## CCCCCCCCCCCCc1ccc(S(=O)(=O)[O-])cc1.[Na+] [(17), sodium dodecylbenzosulfonate]
Yeast gene YAL005C
  The level of expressed mRNA in the presence of chemical substance/The level of expressed mRNA in the absence of chemical substance: 0.8
Yeast gene YAL015C
  The level of expressed mRNA in the presence of chemical substance/The level of expressed mRNA in the absence of chemical substance: 1.1
Yeast gene YBL075C
  The level of expressed mRNA in the presence of chemical substance/The level of expressed mRNA in the absence of chemical substance: 1.2
Yeast gene YBL093C
  The level of expressed mRNA in the presence of chemical substance/The level of expressed mRNA in the absence of chemical substance: 1.4
Yeast gene YBR044C
  The level of expressed mRNA in the presence of chemical substance/The level of expressed mRNA in the absence of chemical substance: 0.9
Yeast gene YBR054W
  The level of expressed mRNA in the presence of chemical substance/The level of expressed mRNA in the absence of chemical substance: 0.7
Yeast gene YBR067C
  The level of expressed mRNA in the presence of chemical substance/The level of expressed mRNA in the absence of chemical substance: 0.5
Yeast gene YBR072W
  The level of expressed mRNA in the presence of chemical substance/The level of expressed mRNA in the absence of chemical substance: 1.8
Yeast gene YBR126C
  The level of expressed mRNA in the presence of chemical substance/The level of expressed mRNA in the absence of chemical substance: 1.5
Yeast gene YBR169C
  The level of expressed mRNA in the presence of chemical substance/The level of expressed mRNA in the absence of chemical substance: 1.3
Yeast gene YCL035C
  The level of expressed mRNA in the presence of chemical substance/The level of expressed mRNA in the absence of chemical substance: 2.6
Yeast gene YCR021C
  The level of expressed mRNA in the presence of chemical substance/The level of expressed mRNA in the absence of chemical substance: 0.7
Yeast gene YCR060W
  The level of expressed mRNA in the presence of chemical substance/The level of expressed mRNA in the absence of chemical substance: 1.2
Yeast gene YCR083W
  The level of expressed mRNA in the presence of chemical substance/The level of expressed mRNA in the absence of chemical substance: 1.3
Yeast gene YDL022W
  The level of expressed mRNA in the presence of chemical substance/The level of expressed mRNA in the absence of chemical substance: 1.0
Yeast gene YDL025C
  The level of expressed mRNA in the presence of chemical substance/The level of expressed mRNA in the absence of chemical substance: 1.0
Yeast gene YDR033W
  The level of expressed mRNA in the presence of chemical substance/The level of expressed mRNA in the absence of chemical substance: 0.7
Yeast gene YDR077W
  The level of expressed mRNA in the presence of chemical substance/The level of expressed mRNA in the absence of chemical substance: 1.4
Yeast gene YDR098C
  The level of expressed mRNA in the presence of chemical substance/The level of expressed mRNA in the absence of chemical substance: 1.0
Yeast gene YDR155C
  The level of expressed mRNA in the presence of chemical substance/The level of expressed mRNA in the absence of chemical substance: 1.2
Yeast gene YDR258C
  The level of expressed mRNA in the presence of chemical substance/The level of expressed mRNA in the absence of chemical substance: 1.3
Yeast gene YDR293C
  The level of expressed mRNA in the presence of chemical substance/The level of expressed mRNA in the absence of chemical substance: 1.4
Yeast gene YDR436W
  The level of expressed mRNA in the presence of chemical substance/The level of expressed mRNA in the absence of chemical substance: 0.9
Yeast gene YDR513W
  The level of expressed mRNA in the presence of chemical substance/The level of expressed mRNA in the absence of chemical substance: 1.3
Yeast gene YDR519W
  The level of expressed mRNA in the presence of chemical substance/The level of expressed mRNA in the absence of chemical substance: 1.8
Yeast gene YEL030W
  The level of expressed mRNA in the presence of chemical substance/The level of expressed mRNA in the absence of chemical substance: 0.9
Yeast gene YEL039C
  The level of expressed mRNA in the presence of chemical substance/The level of expressed mRNA in the absence of chemical substance: 0.7
Yeast gene YER042W
  The level of expressed mRNA in the presence of chemical substance/The level of expressed mRNA in the absence of chemical substance: 0.7
Yeast gene YER057C
  The level of expressed mRNA in the presence of chemical substance/The level of expressed mRNA in the absence of chemical substance: 1.1
Yeast gene YER103W
  The level of expressed mRNA in the presence of chemical substance/The level of expressed mRNA in the absence of chemical substance: 1.4
Yeast gene YER125W
  The level of expressed mRNA in the presence of chemical substance/The level of expressed mRNA in the absence of chemical substance: 1.0
Yeast gene YFL014W
  The level of expressed mRNA in the presence of chemical substance/The level of expressed mRNA in the absence of chemical substance: 1.5
Yeast gene YFL016C
  The level of expressed mRNA in the presence of chemical substance/The level of expressed mRNA in the absence of chemical substance: 1.2
Yeast gene YFL020C
  The level of expressed mRNA in the presence of chemical substance/The level of expressed mRNA in the absence of chemical substance: 1.5
Yeast gene YFR052W
  The level of expressed mRNA in the presence of chemical substance/The level of expressed mRNA in the absence of chemical substance: 1.2
Yeast gene YGL073W
  The level of expressed mRNA in the presence of chemical substance/The level of expressed mRNA in the absence of chemical substance: 2.5
Yeast gene YGL115W
  The level of expressed mRNA in the presence of chemical substance/The level of expressed mRNA in the absence of chemical substance: 0.8
Yeast gene YGL181W
  The level of expressed mRNA in the presence of chemical substance/The level of expressed mRNA in the absence of chemical substance: 1.0
Yeast gene YGR088W
  The level of expressed mRNA in the presence of chemical substance/The level of expressed mRNA in the absence of chemical substance: 0.9
Yeast gene YHL028W
  The level of expressed mRNA in the presence of chemical substance/The level of expressed mRNA in the absence of chemical substance: 1.6
Yeast gene YHL046C
  The level of expressed mRNA in the presence of chemical substance/The level of expressed mRNA in the absence of chemical substance: 0.9
Yeast gene YHR030C
  The level of expressed mRNA in the presence of chemical substance/The level of expressed mRNA in the absence of chemical substance: 2.0
Yeast gene YHR057C
  The level of expressed mRNA in the presence of chemical substance/The level of expressed mRNA in the absence of chemical substance: 1.6
Yeast gene YHR104W
  The level of expressed mRNA in the presence of chemical substance/The level of expressed mRNA in the absence of chemical substance: 1.9
Yeast gene YIL011W
  The level of expressed mRNA in the presence of chemical substance/The level of expressed mRNA in the absence of chemical substance: 0.8
Yeast gene YIL033C
  The level of expressed mRNA in the presence of chemical substance/The level of expressed mRNA in the absence of chemical substance: 1.0
Yeast gene YIR037W
  The level of expressed mRNA in the presence of chemical substance/The level of expressed mRNA in the absence of chemical substance: 1.7
Yeast gene YIR038C
  The level of expressed mRNA in the presence of chemical substance/The level of expressed mRNA in the absence of chemical substance: 2.8
Yeast gene YJL128C
  The level of expressed mRNA in the presence of chemical substance/The level of expressed mRNA in the absence of chemical substance: 1.0
Yeast gene YJL158C
  The level of expressed mRNA in the presence of chemical substance/The level of expressed mRNA in the absence of chemical substance: 1.4
Yeast gene YJL159W
  The level of expressed mRNA in the presence of chemical substance/The level of expressed mRNA in the absence of chemical substance: 1.4
Yeast gene YJL165C
  The level of expressed mRNA in the presence of chemical substance/The level of expressed mRNA in the absence of chemical substance: 1.3
Yeast gene YJR045C
  The level of expressed mRNA in the presence of chemical substance/The level of expressed mRNA in the absence of chemical substance: 0.7
Yeast gene YJR090C
  The level of expressed mRNA in the presence of chemical substance/The level of expressed mRNA in the absence of chemical substance: 1.1
Yeast gene YKL161C
  The level of expressed mRNA in the presence of chemical substance/The level of expressed mRNA in the absence of chemical substance: 1.4
Yeast gene YKL163W
  The level of expressed mRNA in the presence of chemical substance/The level of expressed mRNA in the absence of chemical substance: 0.8
Yeast gene YKL164C
  The level of expressed mRNA in the presence of chemical substance/The level of expressed mRNA in the absence of chemical substance: 0.8
Yeast gene YKL210W
  The level of expressed mRNA in the presence of chemical substance/The level of expressed mRNA in the absence of chemical substance: 0.7
Yeast gene YKR053C
  The level of expressed mRNA in the presence of chemical substance/The level of expressed mRNA in the absence of chemical substance: 2.8
Yeast gene YLL024C
  The level of expressed mRNA in the presence of chemical substance/The level of expressed mRNA in the absence of chemical substance: 0.5
Yeast gene YLL026W
  The level of expressed mRNA in the presence of chemical substance/The level of expressed mRNA in the absence of chemical substance: 1.7
Yeast gene YLL039C
  The level of expressed mRNA in the presence of chemical substance/The level of expressed mRNA in the absence of chemical substance: 1.6
Yeast gene YLL060C
  The level of expressed mRNA in the presence of chemical substance/The level of expressed mRNA in the absence of chemical substance: 1.9
Yeast gene YLR006C
  The level of expressed mRNA in the presence of chemical substance/The level of expressed mRNA in the absence of chemical substance: 1.6
Yeast gene YLR109W
  The level of expressed mRNA in the presence of chemical substance/The level of expressed mRNA in the absence of chemical substance: 1.1
Yeast gene YLR259C
  The level of expressed mRNA in the presence of chemical substance/The level of expressed mRNA in the absence of chemical substance: 0.8
Yeast gene YML007W
  The level of expressed mRNA in the presence of chemical substance/The level of expressed mRNA in the absence of chemical substance: 1.0
Yeast gene YML070W
  The level of expressed mRNA in the presence of chemical substance/The level of expressed mRNA in the absence of chemical substance: 1.2
Yeast gene YMR021C
  The level of expressed mRNA in the presence of chemical substance/The level of expressed mRNA in the absence of chemical substance: 3.3
Yeast gene YMR173W
  The level of expressed mRNA in the presence of chemical substance/The level of expressed mRNA in the absence of chemical substance: 1.9
Yeast gene YMR186W
  The level of expressed mRNA in the presence of chemical substance/The level of expressed mRNA in the absence of chemical substance: 0.7
Yeast gene YNL064C
  The level of expressed mRNA in the presence of chemical substance/The level of expressed mRNA in the absence of chemical substance: 0.7
Yeast gene YNL160W
  The level of expressed mRNA in the presence of chemical substance/The level of expressed mRNA in the absence of chemical substance: 1.0
Yeast gene YNL241C
  The level of expressed mRNA in the presence of chemical substance/The level of expressed mRNA in the absence of chemical substance: 1.0
Yeast gene YNR076W
  The level of expressed mRNA in the presence of chemical substance/The level of expressed mRNA in the absence of chemical substance: 1.5
Yeast gene YOL064C
  The level of expressed mRNA in the presence of chemical substance/The level of expressed mRNA in the absence of chemical substance: 1.2
Yeast gene YOL161C
  The level of expressed mRNA in the presence of chemical substance/The level of expressed mRNA in the absence of chemical substance: 1.1
Yeast gene YOR008C
  The level of expressed mRNA in the presence of chemical substance/The level of expressed mRNA in the absence of chemical substance: 0.8
Yeast gene YOR009W
  The level of expressed mRNA in the presence of chemical substance/The level of expressed mRNA in the absence of chemical substance: 0.9
Yeast gene YOR010C
  The level of expressed mRNA in the presence of chemical substance/The level of expressed mRNA in the absence of chemical substance: 1.4
Yeast gene YOR027W
  The level of expressed mRNA in the presence of chemical substance/The level of expressed mRNA in the absence of chemical substance: 0.9
Yeast gene YOR208W
  The level of expressed mRNA in the presence of chemical substance/The level of expressed mRNA in the absence of chemical substance: 1.6
Yeast gene YPL059W
  The level of expressed mRNA in the presence of chemical substance/The level of expressed mRNA in the absence of chemical substance: 1.8
Yeast gene YPL106C
  The level of expressed mRNA in the presence of chemical substance/The level of expressed mRNA in the absence of chemical substance: 0.5
Yeast gene YPL140C
  The level of expressed mRNA in the presence of chemical substance/The level of expressed mRNA in the absence of chemical substance: 0.9
Yeast gene YPL194W
  The level of expressed mRNA in the presence of chemical substance/The level of expressed mRNA in the absence of chemical substance: 1.0
Yeast gene YPL223C
  The level of expressed mRNA in the presence of chemical substance/The level of expressed mRNA in the absence of chemical substance: 1.0
Yeast gene YPL240C
  The level of expressed mRNA in the presence of chemical substance/The level of expressed mRNA in the absence of chemical substance: 0.8
Yeast gene YPR005C
  The level of expressed mRNA in the presence of chemical substance/The level of expressed mRNA in the absence of chemical substance: 1.0
Yeast gene YPR026W
  The level of expressed mRNA in the presence of chemical substance/The level of expressed mRNA in the absence of chemical substance: 0.9
